Experimental data reported in US20240016831A1 (priority 2020, published 2024).

Format: physicochemical
Settings: pH 3

Compound | amounts of nitric oxide generated (cumulative NO evolved)
OC[C@@H](O)[C@@H](O)[C@H](O)[C@H](O)CO [mannitol, D-mannitol] | markedly greater amounts of nitric oxide
OC[C@@H](O)[C@@H](O)[C@H](O)[C@@H](O)CO [sorbitol] | markedly greater amounts of nitric oxide
